Measured values published in PMC9919957 (2023).

Compound | melting point
NCC[C@H]1C[C@H](O)C(=O)O1 (hydrate or solvate) | 347 to 350 °C
O=C1CC(c2ccc(O)cc2)Oc2cc(OC3OC(CO)C(O)C3O)cc(O)c21 (centres unmarked) | 229 to 230 °C
